PMC11253539, “Structural and mechanistic insights into the transport of aristolochic acids and their active metabolites by human serum albumin” (The Journal of Biological Chemistry, 2024)
Where “and” joins values, the source holds several entries; their conditions need not be identical. Equal entries are not always repeated. Where two headings read alike, the source gives them in different places.

Legend:
HSA (defatted HSAA3782) = target: T1, HSA (defatted HSAA3782) (Homo sapiens, UniProt P02768); experiment: Isothermal titration calorimetry of AA-HSA interactions; type: binding; details: for Ka (macroscopic association constant), Site 1 / Ka (macroscopic association constant), Site 2 / Ka (KA1), site 1 / Ka (KA2), site 2 / Kd: two-site model; for Ka (KA1), site 1: site 1, 25 °C; for Ka (KA2), site 2: site 2, 25 °C; for ΔG°, Site 1 / ΔG°, Site 2: ΔG° = −RTlnKa, T = 298 K
T1 construct: two human serum albumin (HSA) samples derived from pooled human plasma; purchased Sigma Aldrich A3782; host or cells: pooled human plasma
T1 sequence (P02768 25-609): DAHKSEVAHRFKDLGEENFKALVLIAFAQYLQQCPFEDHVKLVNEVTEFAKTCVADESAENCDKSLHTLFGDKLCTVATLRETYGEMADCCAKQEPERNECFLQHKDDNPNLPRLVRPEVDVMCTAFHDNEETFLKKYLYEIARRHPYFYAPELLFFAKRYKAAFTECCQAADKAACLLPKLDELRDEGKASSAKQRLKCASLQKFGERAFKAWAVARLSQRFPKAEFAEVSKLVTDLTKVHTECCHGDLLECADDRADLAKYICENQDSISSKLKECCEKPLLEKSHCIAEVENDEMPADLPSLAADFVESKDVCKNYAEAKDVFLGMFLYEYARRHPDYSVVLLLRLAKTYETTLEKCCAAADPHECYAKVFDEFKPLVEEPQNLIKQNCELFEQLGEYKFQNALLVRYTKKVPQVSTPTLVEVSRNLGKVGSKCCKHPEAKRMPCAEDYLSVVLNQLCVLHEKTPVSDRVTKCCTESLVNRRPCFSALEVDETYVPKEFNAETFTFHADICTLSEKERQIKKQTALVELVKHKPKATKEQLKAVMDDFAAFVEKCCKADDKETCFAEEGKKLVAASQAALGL
From the text: We have assessed the binding affinities of AA-I and AA-II for HSAA3782 by conducting a series of ITC experiments. […] An initial analysis of the AA-HSA binding isotherms using conventional fitting programs provides a reasonable estimate for the binding stoichiometry of two AA ligands per HSA molecule. […] Given the challenges associated with baseline assignments, we subsequently employed the NITPIC/SEDPHAT/GUSSI software suite ([60]) to ensure unambiguous analysis of the binding isotherms. Singular value decomposition yields baseline-corrected association data that are analyzed via a two-site binding model to derive macroscopic affinities for AA-HSA interactions in accordance with the following relation: A+B+B↔[AB]+B↔ABB where A represents the HSA macromolecule and B represents ligand AA-I or AA-II. This binding model implies that both sites are occupied with all possible ligation states coexisting in equilibrium.
Binding parameters for the association of defatted HSAA3782 with AA-I and AA-II were determined calorimetrically employing a MicroCal VP-ITC instrument (Malvern Panalytical). Protein stock solutions (0.5–1.5 mM) were prepared by BME reduction to disrupt potential CyS34-CyS34 dimers and dialyzed against three 500 ml exchanges of 10 mM sodium phosphate buffer (pH 7.5). Aliquots of the respective AA ligand stocks were dissolved in protein dialysate and the final DMSO concentration adjusted to 2%. The HSA standard was prepared by diluting an appropriate aliquot in dialysate containing 2% DMSO to match the syringe solution contents. Each ITC experiment consists of thirty consecutive 10.0 μl injections during which the reaction heat is monitored and integrated over a 5-min interval under constant stirring conditions. The experimental protocol has been designed to ensure that there is at least a 15-fold excess of either AA-I or AA-II (75–200 μM) in the titration syringe relative to the initial HSA concentration (5–10 μM) in the reaction cell.
Binding isotherms acquired at 25 °C were generated by recording the integrated reaction heats normalized for AA concentration versus ligand:protein ratio. […] We subsequently applied the NITPIC/SEDPHAT/GUSSI suite of software programs ([60], [88]) to ensure unbiased baseline assignments and peak integrations that facilitated selection of an appropriate binding model to characterize this protein-ligand system. The SEDPHAT program affords significant flexibility by allowing implicit and explicit uncertainty corrections that facilitate assessment of incompetent binding species in the protein and/or ligand. A nonlinear least squares analysis of the resultant profiles invoking a symmetric two-site binding model yields an optimal fit of the isotherms and requisite macroscopic parameters for AA-HSA interactions.

[1] = target: T2, HSA (HSAA3782 and HSAA8763 mercaptoalbumins) (Homo sapiens, UniProt P02768); experiment: HSA Trp214 fluorescence quenching assay; type: binding
T2 construct: two human serum albumin (HSA) samples derived from pooled human plasma; purchased Sigma Aldrich A3782; A8763; host or cells: pooled human plasma
T2 sequence (P02768 25-609): as above
From the text: Ligand-induced quenching of the intrinsic HSA fluorescence has been assessed by monitoring a single Trp^214 residue located within the IIA binding cavity to derive equilibrium dissociation constants (KD) for numerous endogenous and exogenous molecules including aristolochic acids ([51], [52]). […] Addressing this deficiency, we prepared mercaptoalbumins from HSAA3782 and HSAA8763, consisting of fatty acid-free and limited fatty acid-containing HSA, respectively. We subsequently employed these well-defined HSA samples to conduct comparative fluorescence quenching studies in the presence of AA-I, AA-II, and their respective metabolites while concurrently evaluating the impact of fatty acid content on relative binding affinities.
Equilibrium fluorescence spectra of monomeric HSA samples were collected on an ISS PC1 photon counting spectrophotometer. An excitation wavelength of 295 nm was employed for HSAA3782 and HSAA8763 to selectively monitor tryptophan and avoid contributions of tyrosine residues. The excitation and emission slits were set to 1 nm and 2 nm, respectively. Prior to initiating the experiment, a stock solution of each AA compound (i.e., AA-I, AA-II, AL-I-NOH, AL-II-NOH, AL-I-NOAc. and AL-I-NOSO3) was prepared in DMSO by serial dilution to a 100-fold excess of their final concentration employed in the quenching experiments. HSA samples were diluted to 0.5, 1.0, and 2.5 μM in 10 mM KPi buffer (pH 7.5) and divided into 1 ml aliquots in Eppendorf tubes. A 10 μl aliquot of each AA compound was added to the HSA solutions to achieve a 0.2 to 50 μM concentration range in 1% DMSO. Each AA-HSA mixture was allowed to equilibrate at room temperature for at least 5 min, transferred to a 10 mm × 5 mm quartz cuvette, and emission spectrum recorded over the wavelength range of 310 to 460 nm employing a 2 nm step interval. Following each measurement, the quartz cuvette was cleaned, and the experiment repeated with the next AA:HSA ratio. […] Peak emission intensities at 340 nm were employed to construct fluorescence titration profiles for each AA compound.
Fluorescence titration profiles of the HSA quenching assays were generated using SigmaPlot 13.0. When applicable, the mean and standard deviations obtained from 3 to 5 independent measurements are reported. […] Invoking the SigmaPlot software suite, we applied the following binding model ([87]): F=Ffree−(Ffree−Fbound)∗[…] where F represents the fluorescence signal observed at each ligand concentration (Lt) and Pt is the total protein concentration. Upon fitting, one obtains values of Ffree and Fbound that correspond to the fluorescence of unbound and fully bound HSA, respectively. The number of binding sites and their respective affinities has been determined for AA-I and AA-II interactions with HSA via application of isothermal titration calorimetry as described in the following section.

HSA = system: HSA; design: method as in PMID 16413837; details: numerous binding sites; cited from earlier work
[2] = ITC, Site 1, 10 mM NaPO4 pH 7.5, 25 °C
[3] = ITC, Site 2, 10 mM NaPO4 pH 7.5, 25 °C
[4] = fatty acid-containing HSA, mean ± SD of 3 to 5 measurements, 10 mM KPi pH 7.5, read-out: KDapp (HSAA8763)
[5] = fatty acid-free HSA, mean ± SD of 3 to 5 measurements, 10 mM KPi pH 7.5, read-out: KDapp (HSAA3782)

With `COc1cccc2c1cc([N+](=O)[O-])c1c(C(=O)O)cc3c(c12)OCO3` [AA-I, aristolochic acid I] the “Ka (macroscopic association constant), Site 1” value (HSA (defatted HSAA3782); [2]) was 1.5 10^6 M^−1 and 1.50 ± 0.18 10^6 M^−1, the “Ka (macroscopic association constant), Site 2” value (HSA (defatted HSAA3782); [3]) was 0.5 10^6 M^−1 and 0.54 ± 0.04 10^6 M^−1 and the “Ka (KA1), site 1” value (HSA (defatted HSAA3782); ITC) was 1.5e+06 M⁻¹. For the same compound, the “Ka (KA2), site 2” value (HSA (defatted HSAA3782); ITC) was 540000 M⁻¹, the Kd (HSA (defatted HSAA3782); KD, Site 1, ITC, Site 1, 10 mM NaPO4 pH 7.5, 25 °C) was 690 ± 80 nM and the Kd (HSA (defatted HSAA3782); KD, Site 2, ITC, Site 2, 10 mM NaPO4 pH 7.5, 25 °C) was 1870 ± 120 nM. For the same compound, the “ΔG°, Site 1” value (HSA (defatted HSAA3782)) was -8.41 ± 1.00 kcal/mol, the “ΔG°, Site 2” value (HSA (defatted HSAA3782)) was -7.82 ± 0.58 kcal/mol and the Kd [1] was 430 ± 30 nM.

For `O=C(O)c1cc2c(c3c1c([N+](=O)[O-])cc1ccccc13)OCO2` [AA-II, aristolochic acid II], the “association constant, first site” value (HSA (defatted HSAA3782); ITC, first of two sites, as given in abstract) was 8.4 10^5 M^−1, the “association constant, second site” value (HSA (defatted HSAA3782); ITC, second of two sites, as given in abstract) was 9.0 10^5 M^−1 and the “Ka (macroscopic association constant), Site 1” value (HSA (defatted HSAA3782); [2]) was 0.84 ± 0.07 10^6 M^−1. The Kd (HSA (defatted HSAA3782); ITC, Site 1, 10 mM NaPO4 pH 7.5, 25 °C, read-out: KD, Site 1) was 1190 ± 190 nM, the “Ka (macroscopic association constant), Site 2” value (HSA (defatted HSAA3782); [3]) was 0.90 ± 0.10 10^6 M^−1 and the Kd (HSA (defatted HSAA3782); ITC, Site 2, 10 mM NaPO4 pH 7.5, 25 °C, read-out: KD, Site 2) was 1110 ± 110 nM. The “Ka (KA1), site 1” value (HSA (defatted HSAA3782); ITC) was 840000 M⁻¹, the “Ka (KA2), site 2” value (HSA (defatted HSAA3782); ITC) was 900000 M⁻¹ and the “ΔG°, Site 1” value (HSA (defatted HSAA3782)) was -8.10 ± 0.67 kcal/mol. For the same compound, the “ΔG°, Site 2” value (HSA (defatted HSAA3782)) was -8.12 ± 0.82 kcal/mol, the Kd [1, 4] was 360 ± 30 nM and the Kd [1, 5] was 630 ± 100 nM.

Work on `COc1cccc2c1cc1c3c(cc4c(c32)OCO4)C(=O)N1OC(C)=O` [AL-I-NOAc] yielded a Kd [1, 4] of 590 ± 70 nM and a Kd [1, 5] of 670 ± 130 nM.

In the case of `COc1cccc2c1cc1c3c(cc4c(c32)OCO4)C(=O)N1O` [AL-I-NOH, N-hydroxyaristolactam I], the Kd [1, 4] is reported as 740 ± 60 nM and the Kd [1, 5] is reported as 650 ± 60 nM.

In the case of `CCCCCCCCCCCCCC(=O)O` [myristic acid], the “affinities for HSA binding sites” value (HSA) is listed as 10^4 to 10^7 M^−1.
